Data as given in publication PMC3500254, “Potent Inhibition of Late Stages of Hepadnavirus Replication by a Modified Cell Penetrating Peptide” (PLoS ONE, 2012).

Key:
[1] = test system: Duck Hepatitis B Virus (DHBV); assay: Intracellular viral RNA and DNA replicative forms in infected PDH (Northern and Southern blot); format: cell-based; conditions: 5 days, 3-TC as control
Method: (§1) To determine whether the decrease in DHBV secretion is caused by an inhibition of virus replication, LMH-D2 cells and PDHs were treated with different concentration of Deca-(Arg)8 followed by quantification of viral RNA and intracellular DNA replication intermediates by Northern and Southern blot, respectively. As a control, cells were treated by 3-TC, which is a specific inhibitor of the DHBV polymerase, [33]. […] An unspecific effect on transcription can be excluded as mRNA synthesis in transfected LMH-D2 cells was not impaired.
(§2) Figure 4 Effect of Deca-(Arg)8 on the intracellular hepadnavirus intermediate replicative forms. Infected PDH (A), and stably DHBV-transfected LMH-D2 (B) cells were treated with different amounts of Deca-(Arg)8 ranking from 0.5 µM to 2 µM for 5 days. At the end of treatment, the cells were harvested and lysed for DNA and RNA extraction. […] For the Northern blot the level of DHBV RNA was normalized on the GAPDH RNA amount. […] Bands corresponding to the expected size of relaxed circular (RC), linear (L), single-stranded (SS) and covalently closed circular (ccc) DHBV DNA are indicated. […]
(§3) Cells supernatants were harvested daily, spotted onto positively charged nylon membrane and extracellular DHBV DNA was detected in supernatant of cells by dot blot hybridization assay using a full-length ^32P-labelled DHBV probe as described previously. […]

[2] = test system: Duck Hepatitis B Virus (DHBV); assay: Intracellular viral RNA and DNA replicative forms in LMH-D2 cells (Northern and Southern blot); format: cell-based; conditions: 5 days, Deca-(Arg)8 at 2 µM, 3-TC as control, Northern blot normalized on GAPDH RNA
Method: as §1, §2, §3

Nc1ccn([C@@H]2CS[C@H](CO)O2)c(=O)n1 [3-TC, Lamivudine]
viral RNA levels ([1]; PDH, Deca-(Arg)8 at 2 µM, Northern blot normalized on GAPDH RNA): reduction of viral mRNA synthesis
cccDNA ([1]; infected PDH, Deca-(Arg)8 0.5 µM to 2 µM, Southern blot): prevented cccDNA formation
viral RNA levels [2]: not impaired
